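Results reflect a 48-hour exposure of cells in 96-well plates to compound at five concentrations. The concentration for 50% growth inhibition is given as GI50.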 Activity calls are given as the source filed them. Cut-off read from the data, not from the text of the source: active = GI50 up to about 1.1 µM and inactive = higher.
Columns and labels:
Assay in all cases: inhibition of tumour cell growth, NCI panel, 48 h
786-0 = tested on: 786-0
CAKI-1 = tested on: CAKI-1
HCT-15 = tested on: HCT-15
HL-60 = tested on: HL-60
K562 = tested on: K562
Malme-3M = tested on: Malme-3M
NCI-H23 = tested on: NCI-H23
OVCAR-3 = tested on: OVCAR-3
OVCAR-4 = tested on: OVCAR-4
OVCAR-8 = tested on: OVCAR-8
SF-539 = tested on: SF-539
SK-MEL-28 = tested on: SK-MEL-28
SK-OV-3 = tested on: SK-OV-3
SNB-19 = tested on: SNB-19
TK-10 = tested on: TK-10
U-251 = tested on: U-251
RXF 393 = tested on: RXF 393

SMILES | GI50 (786-0) | GI50 (CAKI-1) | GI50 (HCT-15) [µM] | GI50 (HL-60) | GI50 (K562) | GI50 (Malme-3M) | GI50 (NCI-H23) | GI50 (OVCAR-3) | GI50 (OVCAR-4) | GI50 (OVCAR-8) | GI50 (SF-539) | GI50 (SK-MEL-28) | GI50 (SK-OV-3) | GI50 (SNB-19) | GI50 (TK-10) | GI50 (U-251) | GI50 (RXF 393)
CCC1(N=[N+]=[N-])C(=O)c2ccccc2N(c2ccccc2)C1=O (stereo unspecified) | > 100 µM (inactive) | > 100 µM (inactive) | > 100 | > 100 µM (inactive) | > 100 µM (inactive) | > 100 µM (inactive) | > 100 µM (inactive) | > 100 µM (inactive) | > 100 µM (inactive) | > 100 µM (inactive) | > 100 µM (inactive) | > 100 µM (inactive) | > 100 µM (inactive) | > 100 µM (inactive) | > 100 µM (inactive) | > 100 µM (inactive) | 
COC(=O)C1(C(=O)OC)CC2c3c(c4ccccc4n3C)CC(C1=O)N2Cc1ccccc1 (stereo unspecified) | > 100 µM (inactive) | > 100 µM (inactive) | > 100 | 96.8 µM (inactive) | > 100 µM (inactive) | > 100 µM (inactive) | > 100 µM (inactive) | > 100 µM (inactive) | 76.6 µM (inactive) | > 100 µM (inactive) | > 100 µM (inactive) | 80 µM (inactive) | > 100 µM (inactive) | > 100 µM (inactive) | > 100 µM (inactive) | > 100 µM (inactive) | 29.8 µM (inactive)
CCCCCCCCC(C)CCCCCCCCC(=O)OCC(COP(=O)([O-])OCC[N+](C)(C)C)OC(=O)CCCCCCCCC(C)CCCCCCCC (stereo unspecified) | > 100 µM (inactive) | > 100 µM (inactive) | > 100 | > 100 µM (inactive) | > 100 µM (inactive) | > 100 µM (inactive) | > 100 µM (inactive) | > 100 µM (inactive) | > 100 µM (inactive) | > 100 µM (inactive) |  | > 100 µM (inactive) | > 100 µM (inactive) | > 100 µM (inactive) | > 100 µM (inactive) | > 100 µM (inactive) | > 100 µM (inactive)
Cc1ccc2[nH]c(=O)c(C(C#N)c3ccccc3)nc2c1 (stereo unspecified) | 41.8 µM (inactive) | 34.6 µM (inactive) | 31.4 |  | 47.9 µM (inactive) | 45.2 µM (inactive) | 60.8 µM (inactive) | 23.6 µM (inactive) | 30.1 µM (inactive) |  | 46.7 µM (inactive) | 60.4 µM (inactive) | 50.7 µM (inactive) | 27.4 µM (inactive) | > 100 µM (inactive) | 24.3 µM (inactive) | 23 µM (inactive)
Cc1[nH]c2ccccc2c1C1Cc2ccccc2N1C(=O)/C=C/C(=O)O (stereo unspecified) | > 100 µM (inactive) | > 100 µM (inactive) | 16.1 | > 100 µM (inactive) | > 100 µM (inactive) | > 100 µM (inactive) | > 100 µM (inactive) | > 100 µM (inactive) | > 100 µM (inactive) | > 100 µM (inactive) | > 100 µM (inactive) |  | > 100 µM (inactive) | > 100 µM (inactive) | > 100 µM (inactive) | > 100 µM (inactive) | > 100 µM (inactive)
O=C(CSc1nnc(-c2ccc(/N=C\c3ccc(Cl)cc3)cc2)o1)Nc1cccc(Cl)c1 | > 100 µM (inactive) |  | > 100 | > 100 µM (inactive) | > 100 µM (inactive) | > 100 µM (inactive) | > 100 µM (inactive) |  | > 100 µM (inactive) | > 100 µM (inactive) |  | > 100 µM (inactive) | > 100 µM (inactive) | > 100 µM (inactive) | > 100 µM (inactive) | > 100 µM (inactive) | 80.5 µM (inactive)
S=C(Nc1ccccc1)N(/N=C/C=C/c1ccccc1)c1nnc(-c2ccccc2)c(-c2ccccc2)n1 | > 100 µM (inactive) | 50.7 µM (inactive) | 82.2 | 22.4 µM (inactive) | 36.6 µM (inactive) | 57.7 µM (inactive) | 19.6 µM (inactive) | 38.6 µM (inactive) | 30.5 µM (inactive) | > 100 µM (inactive) | 35.7 µM (inactive) | 54.6 µM (inactive) | > 100 µM (inactive) | > 100 µM (inactive) | 95.3 µM (inactive) | > 100 µM (inactive) | 50.9 µM (inactive)
Cn1nc(-c2ccccc2)c(C(=O)/C=C/c2ccccc2)c(N2CCOCC2)c1=O | 14.2 µM (inactive) |  | 16.7 | 12.8 µM (inactive) | 17.9 µM (inactive) |  | 16.4 µM (inactive) |  |  | 28.4 µM (inactive) | 15.9 µM (inactive) | > 10 µM (inactive) | 27.6 µM (inactive) | > 10 µM (inactive) | 32.8 µM (inactive) | 15.4 µM (inactive) | 12.6 µM (inactive)
CCOC(=O)NC(=O)c1cn(CCN2CCN(C(=O)NCCCCCCNC(=O)N3CCN(CCn4cc(C(=O)NC(=O)OCC)c(=O)n(CCN(CC)CC)c4=O)CC3)CC2)c(=O)n(CCC(CC)CC)c1=O | > 100 µM (inactive) |  | > 100 | > 100 µM (inactive) | > 100 µM (inactive) | > 100 µM (inactive) | > 100 µM (inactive) | > 100 µM (inactive) | > 100 µM (inactive) | > 100 µM (inactive) | > 100 µM (inactive) | > 100 µM (inactive) | > 100 µM (inactive) | > 100 µM (inactive) | > 100 µM (inactive) | > 100 µM (inactive) | > 100 µM (inactive)
O=[N+]([O-])c1cc(Cl)ccc1OCc1ccccc1 | 59 µM (inactive) |  | 67 | 28.4 µM (inactive) | 42.7 µM (inactive) | 99.3 µM (inactive) | 32.1 µM (inactive) | 33 µM (inactive) | > 100 µM (inactive) | > 100 µM (inactive) | 57.3 µM (inactive) | > 100 µM (inactive) | > 100 µM (inactive) |  | > 100 µM (inactive) | 42.2 µM (inactive) | 47.3 µM (inactive)
O=c1c2cc(-c3ccccc3)sc2nc2sc(-c3ccccc3)nn12 | > 100 µM (inactive) | > 100 µM (inactive) | > 100 | > 100 µM (inactive) | > 100 µM (inactive) | > 100 µM (inactive) | > 100 µM (inactive) | > 100 µM (inactive) | > 100 µM (inactive) | > 100 µM (inactive) | > 100 µM (inactive) |  | > 100 µM (inactive) | > 100 µM (inactive) | > 100 µM (inactive) | > 100 µM (inactive) | > 100 µM (inactive)
CC(=O)c1cccc(NC(=O)C(=O)C(C2OC(=O)c3ccccc32)[N+](=O)[O-])c1 (stereo unspecified) | > 100 µM (inactive) | > 100 µM (inactive) | > 100 | > 100 µM (inactive) | > 100 µM (inactive) | > 100 µM (inactive) | > 100 µM (inactive) | > 100 µM (inactive) | > 100 µM (inactive) |  | > 100 µM (inactive) | > 100 µM (inactive) | > 100 µM (inactive) | > 100 µM (inactive) | > 100 µM (inactive) | > 100 µM (inactive) | > 100 µM (inactive)
O=C(O)C(=O)/C=C\c1ccc(Cl)cc1 | > 100 µM (inactive) | > 100 µM (inactive) | > 100 | > 100 µM (inactive) | > 100 µM (inactive) | > 100 µM (inactive) | > 100 µM (inactive) | > 100 µM (inactive) | > 100 µM (inactive) | > 100 µM (inactive) | > 100 µM (inactive) | > 100 µM (inactive) | > 100 µM (inactive) | > 100 µM (inactive) | > 100 µM (inactive) | 66.4 µM (inactive) | > 100 µM (inactive)
OC1c2ccccc2C2C(O)c3ccccc3C12 (stereo unspecified) | > 100 µM (inactive) | > 100 µM (inactive) | > 100 | > 100 µM (inactive) | > 100 µM (inactive) | > 100 µM (inactive) | > 100 µM (inactive) | > 100 µM (inactive) | > 100 µM (inactive) | > 100 µM (inactive) | > 100 µM (inactive) | > 100 µM (inactive) | > 100 µM (inactive) |  | > 100 µM (inactive) | > 100 µM (inactive) | > 100 µM (inactive)
COc1cc(/C=N/N=C(\N)NO)c([N+](=O)[O-])cc1OC | 29.9 µM (inactive) | 20.4 µM (inactive) | 22.7 | 26.8 µM (inactive) | 36.5 µM (inactive) | 59.3 µM (inactive) | 32.4 µM (inactive) | 34 µM (inactive) | 15.2 µM (inactive) | 31.7 µM (inactive) | 41 µM (inactive) | > 100 µM (inactive) | 23.3 µM (inactive) | 79.6 µM (inactive) | 69.3 µM (inactive) | 28.3 µM (inactive) | 33.7 µM (inactive)
N#Cc1c(N)oc2cc3c(C#N)c(N)oc3cc12 | > 100 µM (inactive) | > 100 µM (inactive) | > 100 | > 100 µM (inactive) | > 100 µM (inactive) | > 100 µM (inactive) | > 100 µM (inactive) | > 100 µM (inactive) | > 100 µM (inactive) | > 100 µM (inactive) | > 100 µM (inactive) | > 100 µM (inactive) | > 100 µM (inactive) | > 100 µM (inactive) | > 100 µM (inactive) | > 100 µM (inactive) | > 100 µM (inactive)
O=C1C2C3C=C4c5ccccc5N(c5ccccc5)C4(C2C(=O)N1c1ccc([N+](=O)[O-])cc1)[C@H]1C(=O)N(c2ccc([N+](=O)[O-])cc2)C(=O)[C@@H]31 (stereo partly specified) | > 100 µM (inactive) | > 100 µM (inactive) | > 100 | > 100 µM (inactive) | > 100 µM (inactive) | > 100 µM (inactive) | > 100 µM (inactive) | > 100 µM (inactive) | > 100 µM (inactive) | > 100 µM (inactive) | > 100 µM (inactive) | > 100 µM (inactive) | > 100 µM (inactive) | > 100 µM (inactive) | > 100 µM (inactive) | > 100 µM (inactive) | > 100 µM (inactive)

From ChEMBL document CHEMBL1201862, “PubChem BioAssay data set” (2004)
